Patent publication US20260363245A1, “HETEROCYCLIC COMPOUND AND HARMFUL ARTHROPOD CONTROL COMPOSITION CONTAINING SAME” (SUMITOMO CHEMICAL COMPANY, LIMITED, priority 2022, published 2026)

Legend:
Format in all cases: in vivo
[1] = system: cotton aphids (Aphis gossypii); experiment: Test Method 1: cotton aphid, foliar spray on cucumber seedling (Formulation Example 1); details: 500 ppm; foliar spray 10 mL/seedling; 5 days after spraying
Protocol: (§1) Each test compound is made to a formulation according to a similar method to that described in the Formulation Example 1, and thereto is added water containing 0.03 v/v % of Shindain (registered trademark) to prepare a diluted solution containing a prescribed concentration of the test compound.
(§2) Cucumber (Cucumis sativus) seedling (on the developmental stage of the second true leaf) is planted in a container and approximately 30 cotton aphids (Aphis gossypii) (all developmental stages of life) are released onto the leaves of the cucumber. After 1 day, the diluted solutions are sprayed to the seedling at a ratio of 10 mL/seedling. Further, after 5 days, the number of the surviving insects is examined and the controlling value is calculated by the following equation.
Controlling value(%)={1−(Cb×Tai)/(Cai×Tb)}×100
wherein the symbols in the formula represent the following descriptions. • Cb: Number of the test insects in untreated group; • Cai: Number of the surviving insects at the time of the investigation in untreated group; • Tb: Number of the test insects in treated group; • Tai: Number of the surviving insects at the time of the investigation in treated group;
Here the “untreated group” represents a group where the similar treatment procedure to that of the treated group except not using the test compound is done.

[2] = system: cotton worm (Spodoptera litura); experiment: Test Method 3: cotton worm, sprayed cabbage seedling, second-instar larvae; details: 500 ppm, spray 20 mL/seedling, 5 days
Protocol: as §1
(§3) Cabbage (Brassicae oleracea) seedling (on the developmental stage of the second to third true leaf) is planted in a container, and the diluted solutions are sprayed to the seedling at a ratio of 20 mL/seedling. Thereafter, the aerial part of the seedling is cut out and then is installed into a container in which a filter paper is placed at the bottom of the container. Five of second-instar larvae of cotton worm (Spodoptera litura) are released into the container. After 5 days, the number of the surviving insects is counted, and the mortality of insects is calculated by the following equation.
(§4) Mortality(%)=(1−Number of surviving insects/5)×100

[3] = system: common house mosquito (Culex pipiens pallens); experiment: Test Method 12: common house mosquito larvae in diluted solution; details: 3.5 ppm; last instar larvae; 1 day
Protocol: Each test compound is formulated to a test formulation according to a similar method to that described in the Formulation Example 1, and water is added in preparing for a diluted solution containing a prescribed concentration of the test compound.
Into the diluted solution, 30 last instar larvae of common house mosquito (Culex pipiens pallens) are released, and after 1 day, the state of the house mosquito larvae is examined, and the mortality is calculated by the following equation.
(§5) Mortality(%)=(Number of dead insects/Number of tested insects)×100

[4] = system: cotton aphids (Aphis gossypii); experiment: Test Method 11: cotton aphid, foliar spray on cucumber seedling (Formulation Example 5); details: 200 ppm; foliar spray 10 mL/seedling; 5 days after spraying
Protocol: Each test compound is made to a formulation according to a similar method to that described in the Formulation Example 5, and thereto is added water containing 0.03 v/v % of Shindain (registered trademark) to prepare a diluted solution containing a prescribed concentration of the test compound.
as §2
Controlling value (%)={1−(Cb×Tai)/(Cai×)}×100
wherein the symbols in the formula represent the following descriptions. • Cb: Number of the test insects in untreated group; • Cai: Number of the surviving insects at the time of the investigation in untreated group; • Tb: Number of the test insects in treated group; • Tai: Number of the surviving insects at the time of the investigation in treated group; • Here the “untreated group” represents a group where the similar treatment procedure to that of the treated group except not using the test compound is done.

[5] = system: diamondback moth (Plutella xylostella); experiment: Test Method 4: diamondback moth, sprayed cabbage seedling, second-instar larvae; details: 500 ppm, spray 20 mL/seedling, 5 days
Protocol: as §1
as §3, with “diamondback moth (Plutella xylostella)” for “cotton worm (Spodoptera litura)”
as §4

[6] = system: Western corn rootworm (Diabrotica virgifera virgifera); experiment: Test Method 5: Western corn rootworm, immersed corn seedling; details: 200 ppm; corn seedling immersed 30 seconds; second-instar larvae; 5 days
Protocol: Each 1 mg of the test compounds is dissolved in 50 μL of a mixed solution consisting of 5% of polyoxyethylene sorbitan mono-cocoate and 95% of acetone by volume ratio. Thereto is added water containing 0.03% by volume of Shindain (registered trademark) to prepare a diluted solution containing a prescribed concentration of the test compound.
A young seedling of corn (Zea mays) is immersed into the diluted solution for 30 seconds. Thereafter, two seedlings are installed in a plastic petri dish ([…]), and 10 of second-instar larvae of Western corn rootworm (Diabrotica virgifera virgifera) are released into the dish. After 5 days, the number of the dead insects is counted, and the mortality of insects is calculated by the following equation.
Mortality(%)=(Number of dead insects/10)×100

[7] = system: housefly (Musca domestica); experiment: Test Method 8: housefly female adults, coated glass vial; details: 40 mg/m^2 coated vial, 1 day
Protocol: An acetone solution which is adjusted to 800 ppm of each test compound is poured into a 20 mL glass vial, and the test compound is coated uniformly on inner face of the vial so as to 40 mg/m^2 of the test compound treated, and the vial is then dried.
5 housefly (Musca domestica) female adults are released into the treated vial, and the vial is then covered with lid. After the prescribed time, the state of the housefly is examined, and the mortality is calculated by the following equation.
as §5

| Compound | controlling value [1] | mortality [2] | mortality [3] | controlling value [4] | mortality [5] | mortality [6] | mortality [7] |
| --- | --- | --- | --- | --- | --- | --- | --- |
| CCS(=O)(=O)c1cc(-c2ccc(F)cc2)cnc1N1CCn2nc(OC(F)F)cc2C1=O [compound 19] | ≥ 90% | ≥ 80% | greater than 90% | ≥ 90% |  |  |  |
| CCS(=O)(=O)c1cc(C2CC2)cnc1N1CCn2nc(OC(F)F)cc2C1=O [compound 6] | ≥ 90% | ≥ 80% | greater than 90% | ≥ 90% | ≥ 80% | ≥ 80% |  |
| CCS(=O)(=O)c1cc(-c2ccc(F)cc2)cnc1N1CCn2nc(C(F)(F)F)cc2C1=O [compound 9] | ≥ 90% | ≥ 80% |  | ≥ 90% | ≥ 80% | ≥ 80% |  |
| CCS(=O)(=O)c1cc(Br)cnc1N1CCn2nc(C(F)(F)F)cc2C1=O [compound 7] | ≥ 90% |  | greater than 90% | ≥ 90% |  | ≥ 80% |  |
| CCS(=O)(=O)c1cc(-c2cc(Cl)cc(Cl)c2)cnc1N1CCn2nc(C(F)(F)F)cc2C1=O [compound 13] | ≥ 90% | ≥ 80% | greater than 90% |  | ≥ 80% |  |  |
| CCS(=O)(=O)c1cc(-c2cc(Cl)ccn2)cnc1N1CCn2nc(C(F)(F)F)cc2C1=O [compound 27] |  |  | greater than 90% |  | ≥ 80% |  |  |
| CCS(=O)(=O)c1cc(Br)cnc1N1CCn2nc(OC(F)F)cc2C1=O [compound 8] | ≥ 90% |  |  | ≥ 90% | ≥ 80% |  |  |
| CCS(=O)(=O)c1cc(-c2ccc(Cl)cc2)cnc1N1CCn2nc(C(F)(F)F)cc2C1=O [compound 11] | ≥ 90% | ≥ 80% |  | ≥ 90% | ≥ 80% | ≥ 80% | ≥ 80% |
| CCS(=O)(=O)c1c(N2CCn3nc(OC(F)F)cc3C2=O)nc2ccc(I)cn12 [compound 3] |  | ≥ 80% | greater than 90% | ≥ 90% | ≥ 80% | ≥ 80% | ≥ 80% |
| CCS(=O)(=O)c1c(N2CCn3nc(Br)cc3C2=O)nc2ccc(I)cn12 [compound 46] |  |  |  | ≥ 90% |  |  |  |
| CCS(=O)(=O)c1cc(-c2ccc(Cl)cc2)cnc1N1CCn2nc(OC(F)F)cc2C1=O [compound 16] |  |  |  | ≥ 90% |  |  |  |
| CCS(=O)(=O)c1cc(-c2cccc(C#N)n2)cnc1N1CCn2nc(C(F)(F)F)cc2C1=O [compound 23] | ≥ 90% |  | greater than 90% |  |  |  |  |
